Tests used:
[1] = target: cAMP-specific 3',5'-cyclic phosphodiesterase 4D (Homo sapiens, UniProt Q08499); test: Enzyme Inhibition Assay; conditions: pH 7.5; 23 °C
Experimental: (§1) Inhibition of PDE4 is measured using a luminescence-coupled assay system developed by Cambrex. This assay system couples the formation of AMP, derived from PDE4-catalyzyed hydrolysis of cAMP, to the formation of ATP. The ATP is then used as a substrate for Luciferase and results in light as a signal output. […] This assay is used in a quenched assay format, where PDE4 enzyme and cAMP substrate are added sequentially to a 384 well assay plate (Greiner784075) pre-stamped with compound at the desired concentration. The reaction is incubated at room temperature for 1 h, and then is quenched by the addition of enzyme stop solution and then the light signal is generated by the addition of detection reagent. […] For inhibition curves, compounds were diluted using a 3-fold serial dilution and tested at 11 concentrations. Curves were analysed as describe above using ActivityBase and XLfit , and results were expressed as pIC50 values.

[2] = target: cAMP-specific 3',5'-cyclic phosphodiesterase 4B (Homo sapiens, UniProt Q07343); test: Enzyme Inhibition Assay; conditions: pH 7.5; 23 °C
Chain of cAMP-specific 3',5'-cyclic phosphodiesterase 4B (Q07343 whole entry): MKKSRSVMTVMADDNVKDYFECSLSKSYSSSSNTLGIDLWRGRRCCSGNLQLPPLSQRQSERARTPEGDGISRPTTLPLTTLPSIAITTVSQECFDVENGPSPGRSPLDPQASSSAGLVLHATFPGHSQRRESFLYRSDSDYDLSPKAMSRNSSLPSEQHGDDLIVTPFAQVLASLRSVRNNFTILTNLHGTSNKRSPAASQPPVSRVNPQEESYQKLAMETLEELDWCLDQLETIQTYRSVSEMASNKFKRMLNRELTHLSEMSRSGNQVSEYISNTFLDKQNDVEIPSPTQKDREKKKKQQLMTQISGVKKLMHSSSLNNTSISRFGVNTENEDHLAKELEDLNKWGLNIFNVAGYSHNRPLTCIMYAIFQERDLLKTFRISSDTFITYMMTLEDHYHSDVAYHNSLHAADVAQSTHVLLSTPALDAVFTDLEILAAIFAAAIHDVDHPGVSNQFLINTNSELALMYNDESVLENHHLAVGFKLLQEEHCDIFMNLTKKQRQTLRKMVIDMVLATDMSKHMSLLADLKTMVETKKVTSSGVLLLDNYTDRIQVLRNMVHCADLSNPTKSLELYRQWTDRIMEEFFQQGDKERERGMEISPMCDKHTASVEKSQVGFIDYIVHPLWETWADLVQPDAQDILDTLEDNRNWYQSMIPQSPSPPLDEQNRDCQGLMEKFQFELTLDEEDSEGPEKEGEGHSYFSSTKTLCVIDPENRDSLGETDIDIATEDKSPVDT
Experimental: as §1

Chain of cAMP-specific 3',5'-cyclic phosphodiesterase 4D (Q08499 whole entry): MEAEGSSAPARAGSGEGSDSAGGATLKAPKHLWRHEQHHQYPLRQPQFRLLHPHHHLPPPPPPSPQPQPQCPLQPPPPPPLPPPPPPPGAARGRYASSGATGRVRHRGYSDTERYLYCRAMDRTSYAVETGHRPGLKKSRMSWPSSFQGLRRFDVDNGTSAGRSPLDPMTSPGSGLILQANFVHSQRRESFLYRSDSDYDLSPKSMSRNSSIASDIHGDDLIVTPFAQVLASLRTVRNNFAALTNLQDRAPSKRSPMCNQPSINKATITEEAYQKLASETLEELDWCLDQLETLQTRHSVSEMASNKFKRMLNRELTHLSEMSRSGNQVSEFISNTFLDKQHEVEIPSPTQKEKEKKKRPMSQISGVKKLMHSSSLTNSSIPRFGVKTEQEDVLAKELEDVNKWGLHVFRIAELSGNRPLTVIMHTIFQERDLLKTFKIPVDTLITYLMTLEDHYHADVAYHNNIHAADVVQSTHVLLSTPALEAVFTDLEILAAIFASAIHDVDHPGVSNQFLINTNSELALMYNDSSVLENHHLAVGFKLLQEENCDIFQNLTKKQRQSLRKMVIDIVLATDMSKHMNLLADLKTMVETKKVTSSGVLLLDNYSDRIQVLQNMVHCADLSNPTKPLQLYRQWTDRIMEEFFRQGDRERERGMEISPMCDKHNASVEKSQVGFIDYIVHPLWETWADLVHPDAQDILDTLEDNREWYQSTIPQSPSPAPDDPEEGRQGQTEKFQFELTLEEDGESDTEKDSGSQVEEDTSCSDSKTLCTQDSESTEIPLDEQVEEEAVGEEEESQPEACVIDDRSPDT

IC50 [1]	IC50 [2]	SMILES
2510 nM	5010 nM	Cc1cccc(C)c1C(=O)C1CCCc2sc(NC(=O)c3ccccc3[N+](=O)[O-])c(C(N)=O)c21 (centres undefined) [tetrahydrobenzothiophene (THBT), 18]
2510 nM	100 nM	CCCC1CCc2c(sc(NC(=O)c3ccccc3[N+](=O)[O-])c2C(N)=O)C1 (centres undefined) [tetrahydrobenzothiophene (THBT), 24]

Source: BindingDB's records for doi:10.1016/j.bmc.2009.03.061 (Gsk, 2009)
